# Measurements published in patent publication US20190106460A1, “BINDING INHIBITORS OF THE BETA. TRANSDUCIN REPEAT-CONTAINING PROTEIN” (priority 2011, published 2019).
# Like-named read-outs stand apart in the source and are kept apart here. Starred links: 1 amine or outer side, 2 acyl side, 3 side chain; linkers in the order of their positions; H or OH if unused. Non-standard residues stand in square brackets, D forms with d. Residues, ends and D or L forms follow the SMILES beside them. *: point of attachment. Phe(4-NO2) = N[C@@H](Cc1ccc([N+](=O)[O-])cc1)C(=O)O; Phe(3-F) = N[C@@H](Cc1cccc(F)c1)C(=O)O; Suc = O=C(CCC(=O)[*:2])[*:1]; Ethoxycarbonyl = CCOC(=O)*
# What was measured:
# βTrCP [1] = molecular target: βTrCP (Homo sapiens, UniProt Q9Y297); assay: Fluorescence polarisation (FP) binding assay with fluorescein-tagged IκB peptide
# Target sequence in this assay (P63208 whole entry partner, one chain of several): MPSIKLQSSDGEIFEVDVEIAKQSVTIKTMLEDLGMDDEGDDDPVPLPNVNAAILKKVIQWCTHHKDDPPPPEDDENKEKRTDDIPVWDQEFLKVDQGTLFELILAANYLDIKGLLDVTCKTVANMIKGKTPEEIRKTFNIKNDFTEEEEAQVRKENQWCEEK
# βTrCP/Skp1 = βTrCP/Skp1 (Homo sapiens, UniProt Q9Y297); assay: Surface plasmon resonance (SPR), Biacore T200; type: binding; settings: apparent KD averaged over both surfaces
# Experimental: Surface Plasmon Resonance (SPR)
# Experiments were carried out using the Biacore T200 SPR detection system. This system exploits the phenomenon of surface plasmon resonance (SPR) to monitor interactions between molecules. The system involves the attachment of one interacting partner to a surface (an appropriate sensor chip) while the other interacting partner is passed over it in solution. The binding of molecules to the surface generates an SPR response (measured in response units (RU)) that is proportional to the mass and amount of the biomolecule (in this case βTrCP/Skp1) bound to the chip. The relative responses obtained are dependent on the concentration of the molecule binding. At RUmaximum, the attached protein's binding sites are saturated. Binding events can be followed in real time and a range of interaction characteristics can be determined including kinetics, specificity of interactions and the concentration of specific molecules in a sample.
# As βTrCP was His tagged, an NTA sensor chip was used. This sensor chip has a dextran surface matrix with immobilized nitrilotriacetic acid (NTA) which provides a means of capturing polyHis-tagged proteins through Nickel chelation. It was hoped that addition of Ni^+ would orient the protein in a specific (and hopefully active) manner as it is covalently immobilised via amine coupling. Addition of EDC:NHS (N-ethyl-N′-(3-[…])-carbodiimide:N-hydroxysuccinimide) converts carboxyl groups on the dextran sensor chip surface to succinamide esters which readily form covalent bonds with primary amines. Each chip contains four flow cells (each a separate surface) which means that compounds/peptides can be passed over different forms of βTrCP and a reference surface simultaneously. If binding to βTrCP is occurring, responses should be the same (accounting for differences in density of surface etc) on each surface.
# Two different βTrCP protein complexes were immobilised on to an NTA biacore sensor chip. One included the GSTSkp1 fusion (HisβTrCP/GSTSkp1) while the other was immobilised after GST Removal by Thrombin (HisβTrCP/Skp1). To ensure that the GST moiety is completely removed from Skp1, βTrCP/GSTSkp1 was incubated with thrombin ((10units/mg protein) for at least 16 hours at room temperature in 10mMHEPES 150mMNaCl pH7.4+2 mM CaCl2. Thrombin and GST were removed from βTrCP/Skp1 by buffer exchange through a 50 KDa MWCO vivaspin concentrator.
# Protein Immobilisation Procedure for NTA Chip
# Ni+ (500 μM NiCl) loaded on to surface at a flow rate of 5 μl/min for 60s. EDC/NHS (activates dextran carboxylates) loaded at a flow rate of 5 μl/min for 240s. Protein ([protein]=100 nM to 1 μM) loaded at a flow rate of 10 μl/min for 180s. Strip solution (350 μM EDTA/1M NaCl) added at flow rate of 10 μl/min for 30s (to chelate excess Ni+ and remove non-covalently bound protein e.g. protein oligomers). Quench solution (ethanolamine) at flow rate of 5 μl/min for 240s (to deactivate surface molecules on the chip that have not crosslinked protein). The immobilisation buffer used was 10 mM HEPES pH 7.4, 150 mM NaCl,
# GST Capture Procedure (for Immobilisation Via GSTSkp1)
# EDC:NHS was injected at 5 μl/min for 4 min to activate surface for amine coupling (this converts carboxyl groups on the surface of the chip to succinamide esters that react with primary amines)
# Anti-GST (60 μg/ml). was loaded at 10 μl/min for 4 min resulting in an increase in response units of 6730 (Biacore manual states it should result in ˜7000)
# Ethanolamine was injected at 5 μl/min for 5 min to deactivate remaining unreacted esters at surface (quenching).
# Injection of a low concentration of purified GST (from kit) was injected for 3 mins at 5 μl/min before running a regeneration cycle with glycine pH2.0 that disrupts the antibody-GST interaction. […]
# βTrCP [2] = molecular target: T1, βTrCP (Homo sapiens, UniProt Q9Y297); assay: Biotin pull down assay with biotinylated IκB peptide; type: binding; settings: for Biotin Pulldown Assay 10 μM: 10 μM compound; for Biotin Pulldown Assay 100 μM: 100 μM compound
# T1 sequence (Q9Y297 1-605): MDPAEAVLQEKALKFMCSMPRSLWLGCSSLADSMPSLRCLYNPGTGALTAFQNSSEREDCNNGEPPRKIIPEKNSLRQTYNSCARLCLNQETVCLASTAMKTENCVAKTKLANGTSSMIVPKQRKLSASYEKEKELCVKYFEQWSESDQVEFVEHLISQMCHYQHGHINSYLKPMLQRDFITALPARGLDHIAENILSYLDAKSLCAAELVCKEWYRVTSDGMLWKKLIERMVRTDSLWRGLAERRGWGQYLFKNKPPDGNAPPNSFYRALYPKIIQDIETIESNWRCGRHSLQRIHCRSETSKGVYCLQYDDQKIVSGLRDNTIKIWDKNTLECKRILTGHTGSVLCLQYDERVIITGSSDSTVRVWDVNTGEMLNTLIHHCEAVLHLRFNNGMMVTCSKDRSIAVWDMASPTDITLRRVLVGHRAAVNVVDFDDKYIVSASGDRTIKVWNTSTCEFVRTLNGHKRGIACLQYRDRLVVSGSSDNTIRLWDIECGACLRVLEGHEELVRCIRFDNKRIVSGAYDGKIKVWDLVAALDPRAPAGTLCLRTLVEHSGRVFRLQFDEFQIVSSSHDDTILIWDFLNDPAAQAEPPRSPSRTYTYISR
# β-TrCP1/Skp1 = β-TrCP1/Skp1 (Homo sapiens, UniProt Q9Y297); assay: βTrCP ubiquitination assay (Ub assay); type: biochemical; settings: for Ub Assay 10 μM: 10 μM compound; for Ub Assay 100 μM: 100 μM compound
# Procedure, shortened: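 Compounds tested in duplicate at 10 and 100 μM in βTrCP(IκBα) and βTrCP(β-catenin) cascades with UBE1 E1, UbcH3 E2 and biotinylated ubiquitin; substrate phosphorylation done without compound, ubiquitination steps with compound. Product captured on anti-c-Myc plates and detected with SA-Ru TAG by MSD electrochemiluminescence.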
# Skp2 = Skp2 (Homo sapiens, UniProt Q13309); assay: Selectivity assay vs other E3s: Skp2; type: biochemical; settings: for inhibition at 100 µM: value in brackets, read-out: % Inhibition Skp2 @ (100 μM); for inhibition at 10 µM: read-out: % Inhibition Skp2 @ 10 μM
# Procedure, shortened: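 Skp2 ubiquitination was measured in master mixes of 50 mM Herpes buffer, pH 7.5, with 75 mM NaCl and 1 mM DTT, lacking Mg or ATP. Test compounds were preincubated for 30 minutes at room temperature, Mg/ATP was added for a further 60 minutes, and reactions were boiled in SDS loading buffer, resolved on 10% SDS-PAGE, blotted to nitrocellulose and probed with HRP-Streptavidin.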
# FBW7/Skp1 = FBW7/Skp1 (Homo sapiens, UniProt Q969H0); assay: Selectivity assay vs other E3s: Fbw7; type: biochemical; settings: for inhibition at 100 µM: value in brackets, read-out: % Inhibition Fbw7 @ (100 μM); for inhibition at 10 µM: read-out: % Inhibition Fbw7 @ 10 μM
# Procedure, shortened: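 FBW7/Skp1 E3 ubiquitination of cyclin E substrate in 50 mM HEPES pH 7.5, 75 mM NaCl, 1 mM DTT; preincubated 30 min at room temperature before Mg/ATP, then 60 min more. Products resolved by 10% SDS-PAGE and immunoblotted with anti-cyclin E.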
# [3] = Table 11, with spread, read-out: FP IC50/μM
# [4] = Tables 1, 3, 7, 8, 10 nM fluorescein-tagged IκB peptide, read-out: FP Assay IC50/μM
# β-TrCP1/Skp1, sequence (P63208 2-163 partner limits assumed, one chain of several): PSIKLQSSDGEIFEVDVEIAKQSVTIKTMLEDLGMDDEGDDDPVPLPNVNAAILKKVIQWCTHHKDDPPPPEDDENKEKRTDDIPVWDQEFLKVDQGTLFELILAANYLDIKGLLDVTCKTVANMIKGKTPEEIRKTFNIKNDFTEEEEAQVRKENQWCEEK
# βTrCP/Skp1, sequence (P63208 whole entry partner, one chain of several): as the sequence (P63208 whole entry partner, one chain of several) above
# Skp2, sequence (Q13309 whole entry, species assumed): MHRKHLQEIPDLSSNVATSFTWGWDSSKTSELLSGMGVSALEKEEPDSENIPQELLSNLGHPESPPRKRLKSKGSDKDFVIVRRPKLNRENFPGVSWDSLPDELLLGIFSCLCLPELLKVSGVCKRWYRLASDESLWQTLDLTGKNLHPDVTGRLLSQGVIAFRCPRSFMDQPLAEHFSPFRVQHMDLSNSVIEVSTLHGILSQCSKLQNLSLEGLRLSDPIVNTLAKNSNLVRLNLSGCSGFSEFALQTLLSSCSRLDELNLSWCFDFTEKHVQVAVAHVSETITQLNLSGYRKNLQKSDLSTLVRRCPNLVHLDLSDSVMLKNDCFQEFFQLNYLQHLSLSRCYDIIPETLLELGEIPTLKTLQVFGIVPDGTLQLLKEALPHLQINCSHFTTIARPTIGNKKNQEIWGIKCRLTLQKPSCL
# Skp2, sequence (P63208 whole entry partner, species assumed): as the sequence (P63208 whole entry partner, one chain of several) above
# Skp2, sequence (Q13616 whole entry partner, species assumed): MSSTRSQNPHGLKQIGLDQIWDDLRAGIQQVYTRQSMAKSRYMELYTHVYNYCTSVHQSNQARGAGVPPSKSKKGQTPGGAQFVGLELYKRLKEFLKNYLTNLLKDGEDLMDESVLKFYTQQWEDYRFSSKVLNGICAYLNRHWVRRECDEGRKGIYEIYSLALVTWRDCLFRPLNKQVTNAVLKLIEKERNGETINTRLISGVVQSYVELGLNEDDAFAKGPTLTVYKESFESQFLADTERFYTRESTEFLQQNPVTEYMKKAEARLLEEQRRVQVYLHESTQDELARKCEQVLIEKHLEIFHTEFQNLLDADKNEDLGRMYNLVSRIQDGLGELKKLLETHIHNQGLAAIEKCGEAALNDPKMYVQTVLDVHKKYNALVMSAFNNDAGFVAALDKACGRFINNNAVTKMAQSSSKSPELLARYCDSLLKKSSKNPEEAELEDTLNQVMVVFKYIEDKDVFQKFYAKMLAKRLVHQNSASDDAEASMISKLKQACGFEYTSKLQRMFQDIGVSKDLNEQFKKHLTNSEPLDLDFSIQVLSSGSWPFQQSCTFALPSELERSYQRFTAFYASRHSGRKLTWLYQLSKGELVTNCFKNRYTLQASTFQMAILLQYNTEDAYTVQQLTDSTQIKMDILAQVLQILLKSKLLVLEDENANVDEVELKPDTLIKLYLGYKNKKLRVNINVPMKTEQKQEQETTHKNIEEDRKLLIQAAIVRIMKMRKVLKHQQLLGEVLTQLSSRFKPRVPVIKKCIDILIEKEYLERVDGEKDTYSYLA
# Skp2, sequence (P62877 whole entry partner, species assumed): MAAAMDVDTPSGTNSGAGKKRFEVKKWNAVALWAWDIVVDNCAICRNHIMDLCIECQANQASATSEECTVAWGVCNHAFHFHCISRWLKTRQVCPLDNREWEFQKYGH
# FBW7/Skp1, sequence (Q969H0 whole entry, species assumed): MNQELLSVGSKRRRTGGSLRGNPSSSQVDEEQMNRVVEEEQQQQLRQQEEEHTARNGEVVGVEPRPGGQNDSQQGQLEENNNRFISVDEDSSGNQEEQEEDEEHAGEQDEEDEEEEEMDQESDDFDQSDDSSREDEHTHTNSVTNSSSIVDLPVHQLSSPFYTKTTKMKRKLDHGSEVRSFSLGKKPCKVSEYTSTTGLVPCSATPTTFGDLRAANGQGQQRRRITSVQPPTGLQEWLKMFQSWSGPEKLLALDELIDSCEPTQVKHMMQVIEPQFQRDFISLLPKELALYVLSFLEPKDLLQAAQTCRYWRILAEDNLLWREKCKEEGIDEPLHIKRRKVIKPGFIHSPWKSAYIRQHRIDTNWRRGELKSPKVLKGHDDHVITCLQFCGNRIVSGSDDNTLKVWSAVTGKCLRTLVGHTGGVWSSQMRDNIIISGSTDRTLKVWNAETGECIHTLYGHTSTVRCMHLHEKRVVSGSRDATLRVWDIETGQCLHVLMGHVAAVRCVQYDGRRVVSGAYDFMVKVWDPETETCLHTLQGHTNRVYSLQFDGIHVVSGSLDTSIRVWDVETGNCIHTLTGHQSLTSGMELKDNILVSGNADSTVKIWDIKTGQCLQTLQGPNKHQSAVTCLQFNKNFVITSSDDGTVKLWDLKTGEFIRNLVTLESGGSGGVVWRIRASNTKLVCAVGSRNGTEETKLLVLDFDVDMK
# FBW7/Skp1, sequence (P63208 whole entry partner, species assumed): as the sequence (P63208 whole entry partner, one chain of several) above
# FBW7/Skp1, sequence (Q13616 whole entry partner, species assumed): as the sequence (Q13616 whole entry partner, species assumed) above
# FBW7/Skp1, sequence (P62877 whole entry partner, species assumed): as the sequence (P62877 whole entry partner, species assumed) above
smiles,measurement,setting,value
"NC(=O)CC[C@H](NC(=O)CCC(=O)O)C(=O)NCC(=O)N[C@@H](Cc1cccc(F)c1)C(=O)N[C@@H](Cc1ccc([N+](=O)[O-])cc1)C(=O)N[C@@H](CCC(=O)O)C(N)=O [UBP012, Suc-QGF(3F)F(4NO2)E-NH2]",IC50,βTrCP [1]; [3],2.56 ± 0.374 µM
same,Kd,βTrCP/Skp1,5.49 ± 2.27 µM
same,Biotin Pulldown Assay 10 μM,βTrCP [2],no effect/
same,Biotin Pulldown Assay 100 μM,βTrCP [2],reduces
same,Ub Assay 10 μM,β-TrCP1/Skp1,no effect/
same,Ub Assay 100 μM,β-TrCP1/Skp1,inhibits
same,inhibition at 100 µM,Skp2,0%
same,inhibition at 10 µM,Skp2,0%
same,inhibition at 100 µM,FBW7/Skp1,0%
same,inhibition at 10 µM,FBW7/Skp1,0%
"NC(=O)[C@H](CCC(=O)O)NC(=O)[C@H](Cc1ccc([N+](=O)[O-])cc1)NC(=O)[C@H](Cc1ccc(O)cc1)NC(=O)CNC(=O)[C@H](CCC(=O)O)NC(=O)CCC(=O)O [UBP013, Suc-EGYF(4NO2)E-NH2] (Suc-EGY[Phe(4-NO2)]E-NH2)",IC50,βTrCP [1]; [3],2.07 ± 0.346 µM
same,Kd,βTrCP/Skp1,17.7 ± 5.2 µM
same,Biotin Pulldown Assay 10 μM,βTrCP [2],no effect/
same,Biotin Pulldown Assay 100 μM,βTrCP [2],inhibits
same,Ub Assay 10 μM,β-TrCP1/Skp1,no effect/
same,Ub Assay 100 μM,β-TrCP1/Skp1,inhibits
same,inhibition at 100 µM,Skp2,31%
same,inhibition at 10 µM,Skp2,11%
same,inhibition at 100 µM,FBW7/Skp1,0%
same,inhibition at 10 µM,FBW7/Skp1,0%
"NC(=O)[C@H](CCC(=O)O)NC(=O)[C@H](Cc1c[nH]c2ccccc12)NC(=O)[C@H](Cc1cccc(F)c1)NC(=O)CNC(=O)[C@H](CCC(=O)O)NC(=O)CCC(=O)O [UBP014, Suc-EGF(3F)WE-NH2] (Suc-EG[Phe(3-F)]WE-NH2)",IC50,βTrCP [1]; [3],0.095 ± 0.009 µM
same,IC50,βTrCP [1]; [4],0.095 µM
same,Kd,βTrCP/Skp1,0.455 ± 0.03 µM
same,Biotin Pulldown Assay 10 μM,βTrCP [2],reduces/
same,Biotin Pulldown Assay 100 μM,βTrCP [2],inhibits
same,Ub Assay 10 μM,β-TrCP1/Skp1,reduces/
same,Ub Assay 100 μM,β-TrCP1/Skp1,inhibits
same,inhibition at 100 µM,Skp2,6%
same,inhibition at 10 µM,Skp2,5%
same,inhibition at 100 µM,FBW7/Skp1,0%
same,inhibition at 10 µM,FBW7/Skp1,0%
"NC(=O)[C@H](CCC(=O)O)NC(=O)[C@H](Cc1c[nH]cn1)NC(=O)[C@H](Cc1cccc(F)c1)NC(=O)CNC(=O)[C@H](CCC(=O)O)NC(=O)CCC(=O)O [UBP015, Suc-EGF(3F)HE-NH2] (Suc-EG[Phe(3-F)]HE-NH2)",IC50,βTrCP [1]; [3],0.521 ± 0.059 µM
same,IC50,βTrCP [1]; [4],0.521 µM
same,Kd,βTrCP/Skp1,0.4 ± 0.021 µM
same,Biotin Pulldown Assay 10 μM,βTrCP [2],reduces/
same,Biotin Pulldown Assay 100 μM,βTrCP [2],inhibits
same,Ub Assay 10 μM,β-TrCP1/Skp1,reduces/
same,Ub Assay 100 μM,β-TrCP1/Skp1,inhibits
same,inhibition at 100 µM,Skp2,18%
same,inhibition at 10 µM,Skp2,3%
same,inhibition at 100 µM,FBW7/Skp1,83%
same,inhibition at 10 µM,FBW7/Skp1,12%
"CCOC(=O)N[C@H](CC(=O)O)C(=O)N[C@@H](CCC(=O)O)C(=O)NCC(=O)N[C@@H](Cc1cccc(F)c1)C(=O)N[C@@H](Cc1c[nH]c2ccccc12)C(=O)N[C@@H](CCC(=O)O)C(N)=O [UBP023, EtO(CO)-dEGF(3F)WE-NH2] (Ethoxycarbonyl-[dD]EG[Phe(3-F)]WE-NH2)",IC50,βTrCP [1]; [3],0.045 ± 0.005 µM
same,Kd,βTrCP/Skp1,0.034 ± 0.017 µM
same,Biotin Pulldown Assay 10 μM,βTrCP [2],reduces/
same,Biotin Pulldown Assay 100 μM,βTrCP [2],inhibits
same,Ub Assay 10 μM,β-TrCP1/Skp1,inhibits/
same,Ub Assay 100 μM,β-TrCP1/Skp1,inhibits
same,inhibition at 100 µM,Skp2,4%
same,inhibition at 10 µM,Skp2,4%
same,inhibition at 100 µM,FBW7/Skp1,12%
same,inhibition at 10 µM,FBW7/Skp1,0%
